Source: patent US20260285850A1, “SUBSTITUTED OXAZOLIDINONES AND IMIDAZOLINONES AS HERBICIDES” (FMC CORPORATION, priority 2023, published 2026)

Legend:
Type in all cases: in vivo
[1] = test system: galium (catchweed bedstraw, Galium aparine); experiment: Test A postemergence application, visual injury rating 0-100; conditions: 10 days
Outline: (§1)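 Rating: visual, day 10, untreated plants as reference, 0 no effect to 100 full control. Plants were in loam-sand and were treated either preemergence via directed soil spray or postemergence at the one- to two-leaf stage.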

[2] = test system: oat, wild (wild oat, Avena fatua); experiment: as above; conditions: 10 days
Outline: as §1

[3] = test system: ryegrass, Italian (italian ryegrass, Lolium multiflorum); experiment: as above; conditions: 10 days
Outline: as §1

[4] = test system: blackgrass (Alopecurus myosuroides); experiment: as above; conditions: 10 days
Outline: as §1

[5] = test system: wheat (Triticum aestivum); experiment: as above; conditions: 10 days
Outline: as §1

[6] = test system: barnyardgrass (Echinochloa crus-galli); experiment: as above; conditions: 10 days
Outline: as §1

[7] = test system: kochia (Bassia scoparia); experiment: as above; conditions: 10 days
Outline: as §1

[8] = test system: horseweed (Erigeron canadensis); experiment: as above; conditions: 10 days
Outline: as §1

[9] = test system: palmer (palmer amaranth, palmer pigweed, Amaranthus palmeri); experiment: as above; conditions: 10 days
Outline: as §1

[10] = test system: ragweed (common ragweed, Ambrosia artemisiifolia); experiment: as above; conditions: 10 days
Outline: as §1

[11] = test system: corn (Zea mays); experiment: as above; conditions: 10 days
Outline: as §1

[12] = test system: soybean (Glycine max); experiment: as above; conditions: 10 days
Outline: as §1

[13] = test system: green foxtail (Setaria viridis); experiment: as above; conditions: 10 days
Outline: as §1

[14] = test system: oat, wild (wild oat, Avena fatua); experiment: Test A preemergence soil spray, visual injury rating 0-100; conditions: 10 days, 0 = no effect, 100 = complete control
Outline: as §1

[15] = test system: ryegrass, Italian (italian ryegrass, Lolium multiflorum); experiment: as above; conditions: 10 days, 0 = no effect, 100 = complete control
Outline: as §1

[16] = test system: blackgrass (Alopecurus myosuroides); experiment: as above; conditions: 10 days, 0 = no effect, 100 = complete control
Outline: as §1

[17] = test system: wheat (Triticum aestivum); experiment: as above; conditions: 10 days, 0 = no effect, 100 = complete control
Outline: as §1

[18] = test system: barnyardgrass (Echinochloa crus-galli); experiment: as above; conditions: 10 days, 0 = no effect, 100 = complete control
Outline: as §1

[19] = test system: kochia (Bassia scoparia); experiment: as above; conditions: 10 days, 0 = no effect, 100 = complete control
Outline: as §1

[20] = test system: palmer (palmer amaranth, palmer pigweed, Amaranthus palmeri); experiment: as above; conditions: 10 days, 0 = no effect, 100 = complete control
Outline: as §1

[21] = test system: ragweed (common ragweed, Ambrosia artemisiifolia); experiment: as above; conditions: 10 days, 0 = no effect, 100 = complete control
Outline: as §1

[22] = test system: corn (Zea mays); experiment: as above; conditions: 10 days, 0 = no effect, 100 = complete control
Outline: as §1

[23] = test system: soybean (Glycine max); experiment: as above; conditions: 10 days, 0 = no effect, 100 = complete control
Outline: as §1

[24] = test system: green foxtail (Setaria viridis); experiment: as above; conditions: 10 days, 0 = no effect, 100 = complete control
Outline: as §1

[25] = test system: ducksalad (Heteranthera limosa); experiment: Test B flooded paddy test, visual plant response rating 0-100; conditions: 250 g ai/ha, Flood, applied to paddy water, evaluated after 13 days
Outline: (§2)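 Visual scores versus untreated controls were recorded 13 days after treatment of greenhouse-held plants. At the 2-leaf stage, pots were flooded 3 cm above the soil surface and compounds added straight to the water.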

[26] = test system: sedge, umbrella (small-flower umbrella sedge, Cyperus difformis); experiment: as above; conditions: 250 g ai/ha, Flood, applied to paddy water, evaluated after 13 days
Outline: as §2

[27] = test system: barnyardgrass (Echinochloa crusgalli); experiment: as above; conditions: 250 g ai/ha, Flood, applied to paddy water, evaluated after 13 days
Outline: as §2

[28] = test system: rice (Oryza sativa); experiment: as above; conditions: 250 g ai/ha, Flood, applied to paddy water, evaluated after 13 days
Outline: as §2

[29] = 31 g ai/ha, postemergence, 0 = no effect, 100 = complete control
[30] = Postemergence, 125 g ai/ha, 0 is no effect, 100 is complete control

SMILES: COC(=O)C1=CCC(NC(=O)C2(C)CN(c3cc(F)cc(F)c3)C(=O)O2)C1 (single isomer, unassigned) [Compound 20]
- Galium plant response rating (0-100) [1, 29]: 20
- Galium plant response rating (0 to 100 scale) [1, 30]: 80
- Oat, Wild plant response rating (0-100) [2, 29]: 20
- Oat, Wild plant response rating (0 to 100 scale) [2, 30]: 60
- Ryegrass, Italian plant response rating (0-100) [3, 29]: 0
- Ryegrass, Italian plant response rating (0 to 100 scale) [3, 30]: 80
- Blackgrass plant response rating (0-100) [4, 29]: 0
- Blackgrass plant response rating (0 to 100 scale) [4, 30]: 60
- Wheat plant response rating (0-100) [5, 29]: 0
- Wheat plant response rating (0 to 100 scale) [5, 30]: 80
- Barnyardgrass plant response rating (0-100) [6, 29]: 0
- Barnyardgrass plant response rating (0 to 100 scale) [6, 30]: 90
- Kochia plant response rating (0-100) [7, 29]: 0
- Kochia plant response rating (0 to 100 scale) [7, 30]: 50
- Horseweed plant response rating (0-100) [8, 29]: 0
- Horseweed plant response rating (0 to 100 scale) [8, 30]: 0
- Amaranth, Palmer plant response rating (0-100) [9, 29]: 0
- Amaranth, Palmer / Pigweed, Palmer plant response rating (0 to 100 scale) [9, 30]: 30
- Ragweed plant response rating (0-100) [10, 29]: 0
- Ragweed plant response rating (0 to 100 scale) [10, 30]: 30
- Corn plant response rating (0-100) [11, 29]: 40
- Corn plant response rating (0 to 100 scale) [11, 30]: 100
- Soybean plant response rating (0-100) [12, 29]: 50
- Soybean plant response rating (0 to 100 scale) [12, 30]: 90
- Foxtail, Green plant response rating (0-100) [13, 29]: 20
- Foxtail, Green plant response rating (0 to 100 scale) [13, 30]: 80
- Oat, Wild plant response rating (0-100) ([14]; 31 g ai/ha): 0
- Oat, Wild plant response rating (0 to 100 scale) ([14]; 125 g ai/ha): 0
- Ryegrass, Italian plant response rating (0-100) ([15]; 31 g ai/ha): 0
- Ryegrass, Italian plant response rating (0 to 100 scale) ([15]; 125 g ai/ha): 20
- Blackgrass plant response rating (0-100) ([16]; 31 g ai/ha): 0
- Blackgrass plant response rating (0 to 100 scale) ([16]; 125 g ai/ha): 0
- Wheat plant response rating (0-100) ([17]; 31 g ai/ha): 0
- Wheat plant response rating (0 to 100 scale) ([17]; 125 g ai/ha): 20
- Barnyardgrass plant response rating (0-100) ([18]; 31 g ai/ha): 0
- Barnyardgrass plant response rating (0 to 100 scale) ([18]; 125 g ai/ha): 0
- Kochia plant response rating (0-100) ([19]; 31 g ai/ha): 0
- Kochia plant response rating (0 to 100 scale) ([19]; 125 g ai/ha): 0
- Amaranth, Palmer plant response rating (0-100) ([20]; 31 g ai/ha): 0
- Amaranth, Palmer plant response rating (0 to 100 scale) ([20]; 125 g ai/ha): 0
- Ragweed plant response rating (0-100) ([21]; 31 g ai/ha): 30
- Ragweed plant response rating (0 to 100 scale) ([21]; 125 g ai/ha): 0
- Corn plant response rating (0-100) ([22]; 31 g ai/ha): 0
- Corn plant response rating (0 to 100 scale) ([22]; 125 g ai/ha): 0
- Soybean plant response rating (0-100) ([23]; 31 g ai/ha): 20
- Soybean plant response rating (0 to 100 scale) ([23]; 125 g ai/ha): 60
- Foxtail, Green plant response rating (0-100) ([24]; 31 g ai/ha): 0
- Foxtail, Green plant response rating (0 to 100 scale) ([24]; 125 g ai/ha): 0
- Plant response rating, Ducksalad (0 to 100 scale, 0 is no effect and 100 is complete control) [25]: 0
- Plant response rating, Sedge, Umbrella (0 to 100 scale, 0 is no effect and 100 is complete control) [26]: 0
- Plant response rating, Barnyardgrass (0 to 100 scale, 0 is no effect and 100 is complete control) [27]: 0
- Plant response rating, Rice (0 to 100 scale, 0 is no effect and 100 is complete control) [28]: 0
